The values that follow come from US20230090446A1, “ANTISENSE OLIGONUCLEOTIDE TARGETING LINC00518 FOR TREATING MELANOMA” (UNIVERSITE DE STRASBOURG, priority 2020, published 2023).

This experiment relates to LINC00518. The experiment is described as follows: LINC00518 expression by RT-qPCR in cells treated with MAPK pathway inhibitors. As to conditions: 501Mel and A375 cells, between 12-72 hours after treatment. On the technique in general: In qPCR the cycle at which signal appears reflects the starting amount.

Experimental: Activated Caspase 3 was measured by FACS.
Samples were taken at the indicated time points, total RNA was extracted, retrotranscribed and analyzed by qPCR for LINC00518 expression. B. LINC00518 RNA levels were quantified from scRNAseq of melanoma patient derived xenotransplants (PDXs) treated with Dabrafenib and Trametinib (GSE116237). […] LINC00518 RNA levels were quantified from RNA sequencing of melanoma patients treated with Durvalumab and Trametinib for 15 days (GSE158403). […] Cytoplasmic and mitochondrial RNA fractions were extracted, retrotranscribed and analyzed by qPCR for LINC00518 expression. […] Oxygen consumption rate (OCR) was measured using Agilent Seahorse. Basal and Maximal OCR and reserve capacity were calculated on the basis of OCR changes upon oligomycin (oligo), FCCP and Rotenone A (RotA) administration to the cells.
Total mRNA isolation was performed using the Genelute Mammalian Total RNA Miniprep Kit (Sigma) following manufacturer instructions, or using Trizol and isopropanol precipitation. […] Total and fractionated RNAs were treated with DNAsel following the TurboDnase free kit instructions (Thermofisher) and reversed transcribed using Superscript IV reverse transcriptase (Thermofisher) following manufacturer instructions. qRT-PCR was carried out with SYBR Green I (Roche) and monitored by a LightCycler 480 (Roche). […]

Turning to `CC(C)(C)c1nc(-c2cccc(NS(=O)(=O)c3c(F)cccc3F)c2F)c(-c2ccnc(N)n2)s1` [Dabrafenib], the LINC00518 expression entry was “up-regulation”.
